Results reported in PMC8092108, “Mycophenolate suppresses inflammation by inhibiting prostaglandin synthases: a study of molecular and experimental drug repurposing” (PeerJ, 2021).

Tests used:
COX-1 = target: T1, COX-1 (Ovis aries, UniProt P05979); assay: COX inhibitor screening assay, COX-1; format: biochemical
T1 construct: purchased
T1 sequence (P05979 25-600): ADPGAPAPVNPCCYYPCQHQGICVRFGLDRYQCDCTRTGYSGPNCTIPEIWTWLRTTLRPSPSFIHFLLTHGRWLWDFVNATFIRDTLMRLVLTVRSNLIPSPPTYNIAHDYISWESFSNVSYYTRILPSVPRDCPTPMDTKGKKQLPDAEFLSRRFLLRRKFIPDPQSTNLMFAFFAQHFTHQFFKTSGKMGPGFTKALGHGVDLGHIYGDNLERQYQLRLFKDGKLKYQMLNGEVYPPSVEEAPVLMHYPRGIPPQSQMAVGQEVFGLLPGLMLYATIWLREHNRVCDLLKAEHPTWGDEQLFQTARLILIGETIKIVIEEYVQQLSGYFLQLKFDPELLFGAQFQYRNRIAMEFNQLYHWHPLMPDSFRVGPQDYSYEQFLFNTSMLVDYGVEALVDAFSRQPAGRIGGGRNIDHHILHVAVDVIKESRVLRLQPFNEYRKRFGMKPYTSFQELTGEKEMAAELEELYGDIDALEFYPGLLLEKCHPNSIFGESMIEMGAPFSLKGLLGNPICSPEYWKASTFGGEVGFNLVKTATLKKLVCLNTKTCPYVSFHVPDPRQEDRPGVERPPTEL
Experimental: The inhibitory effects of the drugs MMF and MPA on COX-1 and COX-2 were measured using the COX inhibitor screening assay kit and LOX inhibitor screening kit. […] Briefly, the reaction buffer (Tris–HCl buffer, pH 8.0) containing 5 mM EDTA, 2 mM phenol, and 1 µM hematin was measured into test tubes. The test drugs were dissolved in dimethyl sulfoxide and added to the tubes to final concentrations of […]. COX-1 or COX-2 was added to the test tubes and preincubated for 10 min at 37 °C. Arachidonic acid was then added, and the tubes were incubated for 2 min at 37 °C. The enzyme immunoassay was used to measure the concentration of the product prostaglandin F2α (PGF2α). The estimated values were determined after comparison to the predetermined standard curve. The IC50 was determined after three different experiments. The selectivity index was calculated from Eq. (1):
(1) Selectivity index=IC50COX−1/IC50COX−2

[1] = test system: atopic dermatitis and vitiligo; settings: cited from earlier work

## COc1c(C)c2c(c(O)c1C/C=C(\C)CCC(=O)OCCN1CCOCC1)C(=O)OC2 [Mycophenolate mofetil]
COX-1
  IC50: 5.53 µM
[1]; oral 1–2 g daily for 12 weeks, ref Grundmann-Kollmann et al., 2001, Neuber et al., 2000
  Treatment of atopic dermatitis: highly effective
[1]; topical 15% MMF, ref Handjani et al., 2017
  Tolerability of high topical concentration: well tolerated
[1]; topical application of 15% MMF, ref Handjani et al., 2017
  Treatment of vitiligo: highly effective
